pKi: −log10 of the molar value.
Target: Adenosylhomocysteinase (Bos taurus)
Assay: Time course of inactivation of bovine liver S-adenosyl-homocysteine hydrolase

| Compound | pKi |
| --- | --- |
| Nc1ncnc2c1ncn2[C@@H]1C=C[C@@H](O)[C@H]1O | 7.39 |
| Nc1nccc2c1ncn2C1C=C[C@@H](O)[C@H]1O (some centres not stated) | 7.46 |

Source: BindingDB's records for doi:10.1021/jm00398a002 (University of Kansas, 1988)
